From patent US11389415B2, “Methods of regulating cannabinoid receptor activity-related disorders and diseases” (The United States of America as represented by the …, priority 2012, dated 2022) come the findings set out here.

In the assay the test system is Sox4, Olig1, Galnt3, Cdkn3, Ccna2, Bub1b mRNA. The assay is described as follows: qRT-PCR of selected genes in C6 xenograft tumors. Format: in vivo, mouse. The conditions noted are these: MNF-treated mice. The protocol:
Total RNA extraction, cDNA synthesis and qRT-PCR analysis. Total RNA (including the DNase treatment step) was isolated from frozen tumor tissues using the RNeasy mini kit (Qiagen, Valencia, Calif.). RNA concentration and quality was measured using the NanoDrop spectrophotometer (NanoDrop Technologies, Wilmington, Del.). Subsequently, 2 μg total RNA was reverse-transcribed to cDNA using the qSCRIPT™ cDNA SuperMix (Quanta Biosciences, Gaithersburg, Md.). Quantitative real-time PCR (qRT-PCR) reactions were performed to validate the expression of 6 genes that were selected from the microarray analysis. The reactions were carried out with SYBR® Green PCR master mix on an ABI Prism 7300 sequence detection system (Applied Biosystems) using commercially available target probes for Sox4, Olig1, Galnt3, Cdkn3, Ccna2, and Bub1b (PrimeTime qPCR Assays and Primers, IDT DNA Technologies, Coralville, Iowa). The data was analyzed using the 2-ΔΔCt method with Gapdh and vehicle-treated tumors as internal controls. Controls consisting of reaction mixture without cDNA were negative in all runs.
Background: In qPCR the cycle at which signal appears reflects the starting amount.

For the compound `COc1ccc(C[C@@H](C)NC[C@H](O)c2cc(O)cc(O)c2)c2ccccc12` [(R,R′)-MNF, (R,R′)-4′-methoxy-1-naphthylfenoterol], the “mRNA expression by quantitative RT-PCR compared to control” value was “decreased the expression of Bub1b, Cdkn3 Ccna2, Olig1, Sox4, and Galnt3”.
